The values below come from US4595698A, “Physiologically active substance, arphamenine and production thereof” (Zaidan Hojin Biseibutsu Kagaku Kenkyu Kai, priority 1982, dated 1986).

Data set [1] concerns cell-mediated immunity (D.T.H. to SRBC). Nature of the data set: D.T.H. to SRBC in tumor-bearing (Sarcoma 180) mice, Test Example 2 (1). Type of data set: in vivo, CDF1 mice. The protocol: The swelling degree on the footpad in mice was evaluated in the same way as in Test Example 1, except that the CDF1 mice employed for the test previously received an intraperitoneal inoculation of 10^6 Sarcoma 180 cells, and that arphamenine A was administered intraperitoneally once daily for 4 consecutive days, including the day of inoculation of SRBC, and two days after the administration, SRBC was given to the treated mice to elicit D.T.H. response.

The subject of data set [2] is Ehrlich Solid Tumor. Nature of the data set: Anti-tumor activity against Ehrlich Solid Tumor, Test Example 3. The class given is in vivo, ddY mice. The protocol:
Anti-tumor activity of arphamenine against Ehrlich Solid Tumor.
3×10^6 cells of Ehrlich ascites tumor were transplanted subcutaneously into the flank of ddY mice (8-week old, female, 5 mice per group). The day of this transplantation was designated as Day 0. Then, 0.5, 0.05 or 0.005 mg/kg of the test compound dissolved in physiological saline solution was orally administered to the mice a total of 7 times on alternate days until Day 15, beginning on Day 1. On day 30, the size (shorter diameter^2 ×longer diameter/2) of tumor and the weight of tumor were measured. The results in this treated group of mice were compared with those in the control group of mice to calculate tumor inhibition rate (TIR, %) according to the following equation: [formula] where C denotes the size or weight of tumor in the control group, and T denotes the size or weight of tumor in the treated group.

Data set [3] relates to cell-mediated immunity (D.T.H. response to sheep red blood cells). Nature of the data set: Delayed Type Hypersensitivity (D.T.H.) to SRBC in normal mice, Test Example 1. The conditions noted are these: for Increased thickness of footpad / T/C (%): single oral dose; for T/C (%): control = 100.
Protocol: Effect of arphamenine on cell-mediated immunity in normal mice.
Effect of arphamenines A and B on the cell-mediated immunity was tested according to a known Delayed Type Hypersensitivity (D.T.H.) technique (see P. H. Lagrange, G. B. Mackaness and T. E. Miller: "J. Exp. Med.", 139, 1529~1539 (1974)) using mice immunized with sheep red blood cells (SRBC) as the antigen inoculated to the foot-pad pad of the mice.
Thus, 10^8 SRBC suspended in 0.05 ml of physiological saline was inoculated by subcutaneous injection to the one side of hind footpad of CDF1 mice (5 mice per group, female, 8-weeks old) to make immunization. At the time of this immunization, an aqueous solution containing 5 mg/kg, 0.5 mg/kg, 0.05 mg/kg or 0.005 mg/kg of arphamenine A or B was administered orally at a single dose to each test mice. 4 Days after the immunization, 10^8 SRBC in 0.05 ml of physiological saline was injected subcutaneously into the other side of the hind footpad of the test mice for elicitation of D.T.H. response. 24 Hours after the eliciting injection, the thickness (in mm) of the hind footpad having received the eliciting injection of SRBC was measured with calipers. At the same time, the thickness of the other side of footpad which had not received the eliciting injection of SRBC was also measured in each mouse.
The increase of footpad thickness (the swelling degree) was calculated by the following equation: [formula]
The effect of arphamenine on the DTH response was evaluated by the following equation: [formula]
Therefore, the assumption was here that the value for the control mice (untreated) was evaluated to be 100%.
In data set [4] the target is T1, aminopeptidase B (Rattus norvegicus, UniProt O09175).
T1 construct: an aminopeptidase B which had been purified with DEAE-Cellulose; from tissue
T1 sequence (O09175 1-650): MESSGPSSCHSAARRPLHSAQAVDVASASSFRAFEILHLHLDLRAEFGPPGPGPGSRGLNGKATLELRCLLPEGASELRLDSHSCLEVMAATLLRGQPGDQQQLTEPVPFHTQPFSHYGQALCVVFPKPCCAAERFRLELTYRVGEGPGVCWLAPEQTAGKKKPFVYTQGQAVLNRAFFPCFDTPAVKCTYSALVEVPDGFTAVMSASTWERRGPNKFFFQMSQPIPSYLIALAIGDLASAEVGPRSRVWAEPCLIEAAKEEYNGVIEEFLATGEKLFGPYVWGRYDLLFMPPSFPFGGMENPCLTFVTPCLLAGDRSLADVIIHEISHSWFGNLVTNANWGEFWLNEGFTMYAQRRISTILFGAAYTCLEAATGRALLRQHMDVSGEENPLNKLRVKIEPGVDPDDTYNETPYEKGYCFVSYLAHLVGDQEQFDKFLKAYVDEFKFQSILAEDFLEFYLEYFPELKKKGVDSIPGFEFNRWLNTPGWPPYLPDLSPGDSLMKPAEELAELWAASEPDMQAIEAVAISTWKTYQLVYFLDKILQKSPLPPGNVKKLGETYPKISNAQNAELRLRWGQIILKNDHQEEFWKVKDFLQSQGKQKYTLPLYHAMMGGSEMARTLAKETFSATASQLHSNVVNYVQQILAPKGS
In words: Inhibition of aminopeptidase B (arginine-β-naphthylamide degradation, modified Hoppusu method). The class given is biochemical. The protocol: Tracing of arphamenine which was made during the course of cultivation of the arphamenine-producing strain, as well as during the course of recovery and purification of arphamenine was conducted by determining the anti-aminopeptidase B potency of arphamenine according to the following methods.
In detail, 0.5 ml of 0.1 M tris-hydrochloride buffer solution (pH 7.0) and 0.25 ml of a solution containing an arphamenine specimen were added to 0.25 ml of a substrate solution containing 0.002 M arginine-β-naphthylamide. The mixed solution so obtained was heated at 37° C. for 3 minutes. To the heated solution was added 5 μl of a solution of an aminopeptidase B which had been purified with DEAE-Cellulose according to the enzyme-purification technique of Hoppusu et al. The resulting mixture was reacted for 30 minutes at 37° C., and the resultant reaction mixture was admixed with 1 ml of 1.0 M acetate buffer solution (pH 4.2) containing Fast Garnet GBC (o-aminoazotoluene, diazonium salt) at a concentration of 1 mg/ml and a surfactant "Tween" 20 at a concentration of 10% to stop the enzyme reaction. After allowing the resulting mixture to stand at ambient temperature for 15 minutes, absorbance (a) at 525 nm of the reaction solution was measured. On the other hand, adsorbance (b) at 525 nm of a control reaction solution obtained from the blank test using the buffer solution containing no arphamenine was measured. Percent of inhibition to the aminopeptidase B was calculated from the equation [(b-a)/b]×100.

Data set [5] has as its system mice. Nature of the data set: Acute toxicity tests in mice by intravenous injection. Type of data set: in vivo. The conditions noted are these: iv. dose of 150 mg/kg. The protocol: Acute toxicity tests in mice by intravenous injection have shown that no deaths are caused by arphamenine A in an iv. dose of 250 mg/kg or by arphamenine B in an iv. dose of 150 mg/kg. […] These new compounds are therefore useful as immunopotentiators and anti-tumor immunomodulators or as adjuvants to various chemotherapeutic agents for use in the treatment of carcinomas.

[6] abbreviates: 0.05 mg/kg orally, 7 times on alternate days, day 30.

Read-outs that look alike come from different tables or passages of the source.

On to `CC(C)C[C@H](NC(=O)[C@@H](O)[C@H](N)Cc1ccccc1)C(=O)O` [Bestatin, reference compound], for which the “Increased thickness of footpad” value in data set [1] (Table 3, 5 mg/kg intraperitoneally once daily, 4 days) was 6.0 ± 0.96 × 0.1 mm; in data set [3] (Table 1, 0.5 mg/kg) it was 12.5 ± 1.24 × 0.1 mm; in data set [3] (Table 2, 0.5 mg/kg) it was 13.0 ± 1.13 × 0.1 mm. Further, the “T/C (%)” value in data set [1] (Table 3, 5 mg/kg intraperitoneally once daily, 4 days, control = 100) stood at 133%; in data set [3] (Table 1, 0.5 mg/kg), 151%; in data set [3] (Table 2, 0.5 mg/kg), 149%. In addition, the “TIR (%), tumor size” value in data set [2] (setting [6]) is on record as 60.6%. In addition, the “TIR (%), tumor weight” value in data set [2] (setting [6]) turned out to be 44.9%. Also, the “Average weight of tumor” value in data set [2] (0.05 mg/kg orally, 7 times on alternate days, day 30, **P < 0.05 (Ttest)) is reported as 1.47 ± 0.92 g. The “Average size of tumor” value in data set [2] (0.05 mg/kg orally, 7 times on alternate days, day 30, *P < 0.1 (Ttest)) turned out to be 2089 ± 1946 mm^3.
One may read the IC50 as the point on the concentration scale where inhibition reaches its midpoint. In the case of `N=C(N)NCCCC(N)C(=O)CC(Cc1ccc(O)cc1)C(=O)O` (stereo not drawn) [Arphamenine B], the IC50 in data set [4] (crude powder after CM-Sephadex C-25, Example 3, read-out: anti-aminopeptidase B potency, IC50 (converted)) is 6.84 nM; in data set [4] (light yellow powder after Biogel P-2, Examples 8 and 9, read-out: anti-aminopeptidase B potency (IC50) (converted)), 56.5 nM. For the same compound, the “cell-mediated immunity depressed by the tumor (in words)” value in data set [1] (tumor-bearing) is listed as “modulate the cell-mediated immunity depressed by the tumor”. The “host-mediated anti-tumor effect (in words)” value in data set [2] (summary statement) is listed as “exhibit a host-mediated anti-tumor effect”. Besides, in data set [5], the “deaths, acute toxicity” value is given as “no deaths”. Also, the “Increased thickness of footpad” value is 12.4 ± 1.40 × 0.1 mm in data set [3] (Table 2, 0.005 mg/kg); 14.0 ± 1.33 × 0.1 mm in data set [3] (Table 2, 0.05 mg/kg); 14.7 ± 1.74 × 0.1 mm in data set [3] (Table 2, 0.5 mg/kg); 13.7 ± 1.77 × 0.1 mm in data set [3] (Table 2, 5 mg/kg). Moreover, the “T/C (%)” value in data set [3] (Table 2, 0.005 mg/kg) turned out to be 143%; in data set [3] (Table 2, 0.05 mg/kg), 161%; in data set [3] (Table 2, 0.5 mg/kg) it was 169%; in data set [3] (Table 2, 5 mg/kg) it was 157%. For the same compound, the “cell-mediated immunity in normal animals (in words)” value in data set [3] (normal animals) is reported as “potentiate the cell-mediated immunity in normal animals”.
